From PMC9313812, “The Pseudo‐Natural Product Rhonin Targets RHOGDI” (Angewandte Chemie (International Ed. in English), 2022)

Experiments:
[1] = test system: Alpl expression in C3H10T1/2 cells; assay: RT-qPCR of Alpl mRNA; format: cell-based, mouse; settings: 1.5 μM purmorphamine, 96 h
Description: (§1) Supplementary Figure S6 (related to Figure 5). Characterization of compound 7l (Rhonin).
(§2) (a) GLI-responsive reporter gene assay in SHH-LIGHT2 cells. (b) Influence of Rhonin on the expression of Alpl. C3H10T1/2 cells were treated with 1.5 µM purmorphamine and the compounds for 96 h prior to RT-qPCR to detect Alpl mRNA levels. Data were normalzed to Gapdh and Ap3d1 gene levels and are mean values (n = 3) ± SD. (c) Detection of cilia in NIH/3T3 cells. NIH/3T3 cells were cultured in serum reduced (0.5 % FCS) medium for 24 h to induce cilia formation, followed by a pre-treatment of cells with different concentrations of 7l or Vismodegib or DMSO as a control in serum reduced medium. […]
projections, after previous background subtraction. For quantification, cilia were identified and […]
Smoothened antibody were measured within these areas. […]
significances were assessed using an unpaired t-test (confidence interval of 95%) with the […]
replicates were performed and for each replicate at least 100 cilia per condition were analyzed.
Reverse transcription- quantitative PCR (RT-qPCR) […]
DNase I digestion step. The concentration of purified RNA was determined by means of the […]
QuantiTect Reverse Transcription Kit (Qiagen) according to the manufacturer’s protocol. […]
determined by means of quantitative RT-PCR using the QuantiFast SYBR Green PCR Kit […]

NIH/3T3 cells = assay: Detection of cilia (acetylated tubulin staining); format: cell-based
Description: as §1
as §2, with “medium. After another 24h cells were treated with 2 µM purmorphamine or DMSO as a control and with different concentrations of 7l, or Vismodegib or DMSO as a control for 24 h.” for “medium.”
cilia were stained with an antibody against acetylated tubulin. SMO was marked with an anti-SMO antibody and DAPI was used to stain the nuclei. For quantification of cilia, at least 100 cilia per condition and biological replicate were analyzed for the intensity of anti-acetylated tubulin antibody staining. […] Statistical significance was evaluated using an unpaired t-test with a confidence interval of 95 % (p ≤ n.s.). […]

In the case of `COC(=O)C1(C(CC(=O)c2cccnc2)c2ccccc2)N=C(c2ccc(Br)cc2)C2C(=O)N(C)C(=O)C21` (centres unmarked) [7l], the “Expression of the alkaline phosphatase gene Alpl (in words)” value [1] was “inhibited the expression of the alkaline phosphatase gene” and the “Cilia formation (in words)” value (NIH/3T3 cells) was “cilia formation was not affected”.
